Reference: article PMC9105604, “Parathyroid Hormone-Related Peptide and Its Analog, Abaloparatide, Attenuate Lethal Myocardial Ischemia-Reperfusion Injury” (Journal of Clinical Medicine, 2022)

What was measured:
[1] = tested on: HL-1 cardiomyocytes; experiment: MTT viability of HL-1 cardiomyocytes with or without MEK-ERK inhibitor PD98059 (Protocol 2B)
Protocol: (§2) The primary endpoint for Protocols 1A–C was HL-1 cell viability assessed using the MTT (3-(4,5-dimethythiazol-2-yl)-2,5-diphenyl tetrazolium bromide) assay (Sigma Aldrich, St. Louis, MO, USA). This well-established colorimetric method is based on the reduction of the soluble tetrazolium salt to purple formazan crystals by viable, metabolically active cells and quantified by measuring absorbance at 570 nm [25].
At 24 h after the onset of treatment, cells underwent either 2 h of SI + 24 h reoxygenation or a time-matched period of normoxia (n = 2 independent replicates per group). At 24 h following relief of SI, cell viability was quantified using the MTT assay as described in Protocol 1.

[2] = tested on: HL-1 cardiomyocytes; experiment: MTT viability of HL-1 cardiomyocytes, simulated ischemia-reoxygenation or normoxia (Protocol 1); type: cell-based
Protocol: Before initiating experiments, HL-1 cells were grown to ~80% confluence in 95% room air/5% CO2 at 37 °C in Claycomb medium supplemented with fetal bovine serum (10%), L-glutamine (2 mM), norepinephrine (0.1 mM), penicillin (100 U/mL) and streptomycin (100 µg/mL) [21, 22].
At 24 h after the onset of treatment, cells were subjected to 2 h of simulated ischemia (SI) + 24 h reoxygenation. During SI, Claycomb medium containing drug/placebo was replaced with drug-free hypoxia buffer at pH 6.6 (composed of NaCl (125 nM), KCl (8 mM), KH2PO4 (1.2 mM),1.25 mM MgSO4 (1.25 mM), CaCl2 (1.2 mM), NaHCO3 (6.25 mM), HEPES (20 mM), glucose (5.5 mM), 2-deoxy-D-glucose (20 mM), Na-lactate (5 mM): all ingredients from Sigma Aldrich, St. Louis, MO, USA) and the culture plates were sealed in a hermetic chamber with GasPak EZ Gas Generating Sachets (BD Biosciences, San Jose, CA, USA). Reoxygenation was achieved by removing the plates from the sealed chamber and exchanging the hypoxia buffer with serum-free Claycomb medium [21, 22]. Additional time- and treatment-matched normoxic cultures served as controls (n = 4 independent replicates per group).
as §2

[3] = tested on: phospho-Akt; experiment: Immunoblot of phospho-Akt in HL-1 cells after simulated ischemia-reperfusion (Protocol 2A); type: cell-based; details: 10 nM, 24 h pretreatment, 2 h SI + 10 min reoxygenation; n = 3; vehicle 0.14 ± 0.01
Protocol: (§1) At 10 min post-reoxygenation, cells were harvested and lysed in RIPA buffer containing 2 protease and phosphatase inhibitors. The lysates were centrifuged at 14,000× g for 15 min, and the resultant supernatant was collected and probed for the expression of ERK (total and phosphorylated: antibodies from Cell Signaling Technology Inc., Danvers, MA, USA), PI3 kinase/Akt (total and phosphorylated: Cell Signaling Technology Inc., Danvers, MA, USA) and GAPDH (Sigma Aldrich Inc., St. Louis, MO, USA) using standard methods. Immunoreactive bands were identified by incubation with horseradish peroxidase (HRP)-conjugated secondary antibody, visualized using x-ray film, and quantified using the NIH ImageJ software.

[4] = tested on: phospho-ERK; experiment: Immunoblot of phospho-ERK in HL-1 cells after simulated ischemia-reperfusion (Protocol 2A); type: cell-based; details: 10 nM, 24 h pretreatment, 2 h SI + 10 min reoxygenation; n = 3; vehicle 0.33 ± 0.09
Protocol: as §1

[5] = in vivo, cited from earlier work

Row | Compound | HL-1 cell viability under normoxic conditions, alone or in combination (Protocol 2B) ([1]; peptides 10 nM, PD98059 5 µM, 24 h, normoxia, n = 2, no statistics) | Concentration dependence of % viability / magnitude of protection after SI-reoxygenation ([2]; 24 h pretreatment, 2 h SI + 24 h reoxygenation, Protocols 1A, 1B, confirmed in 1C) | HL-1 cell viability after SI-reoxygenation ([2]; 24 h pretreatment, then 2 h simulated ischemia + 24 h reoxygenation, PTHrP(1-36) 10, 100 nM (n = 4), abaloparatide 0.1-100 nM (n = 5), versus vehicle) | HL-1 cell viability under normoxic conditions ([2]; time- and treatment-matched normoxic cultures) | SI-reoxygenation-induced cell death (Protocol 2B) ([1]; 10 nM, 24 h pretreatment, 2 h SI + 24 h reoxygenation, n = 2, versus vehicle) | Protective effect on HL-1 viability with co-administration of PD98059 ([1]; peptide 10 nM + PD98059 5 µM, 24 h, then 2 h SI + 24 h reoxygenation, n = 2) | phospho-Akt expression (normalized to GAPDH) [3] | phospho-ERK expression (normalized to total ERK) [4] | Hemodynamic effects in post-menopausal women with osteoporosis ([5]; sc) | Incidence of adverse cardiac events in treated subjects [5]
1 | COc1cccc(-c2cc(=O)c3ccccc3o2)c1N [PD98059] | neither PTHrP(1-36), abaloparatide, or PD98059, given alone or in combination, had an effect |  |  |  |  |  |  |  |  | 
2 | abaloparatide |  | modestly but significantly greater in cells incubated with 10 nM | significantly better maintained | no effect | attenuated | abrogated | better preservation | modest but significant increase | modest and transient increases in heart rate and decreases in supine blood pressure | no evidence of an increase
